Measurements taken from publication PMC8565842, “Structural snapshots of human PepT1 and PepT2 reveal mechanistic insights into substrate and drug transport across epithelial membranes” (Science Advances, 2021).

Target: T1, HsPepT2 (Homo sapiens, UniProt Q16348)
T1 construct: The wild-type HsPepT2 gene was cloned into a pXLG vector; expressed in transfected cells; host or cells: HEK293F cells, transient transfection (pXLG vector)
T1 sequence (Q16348 1-729): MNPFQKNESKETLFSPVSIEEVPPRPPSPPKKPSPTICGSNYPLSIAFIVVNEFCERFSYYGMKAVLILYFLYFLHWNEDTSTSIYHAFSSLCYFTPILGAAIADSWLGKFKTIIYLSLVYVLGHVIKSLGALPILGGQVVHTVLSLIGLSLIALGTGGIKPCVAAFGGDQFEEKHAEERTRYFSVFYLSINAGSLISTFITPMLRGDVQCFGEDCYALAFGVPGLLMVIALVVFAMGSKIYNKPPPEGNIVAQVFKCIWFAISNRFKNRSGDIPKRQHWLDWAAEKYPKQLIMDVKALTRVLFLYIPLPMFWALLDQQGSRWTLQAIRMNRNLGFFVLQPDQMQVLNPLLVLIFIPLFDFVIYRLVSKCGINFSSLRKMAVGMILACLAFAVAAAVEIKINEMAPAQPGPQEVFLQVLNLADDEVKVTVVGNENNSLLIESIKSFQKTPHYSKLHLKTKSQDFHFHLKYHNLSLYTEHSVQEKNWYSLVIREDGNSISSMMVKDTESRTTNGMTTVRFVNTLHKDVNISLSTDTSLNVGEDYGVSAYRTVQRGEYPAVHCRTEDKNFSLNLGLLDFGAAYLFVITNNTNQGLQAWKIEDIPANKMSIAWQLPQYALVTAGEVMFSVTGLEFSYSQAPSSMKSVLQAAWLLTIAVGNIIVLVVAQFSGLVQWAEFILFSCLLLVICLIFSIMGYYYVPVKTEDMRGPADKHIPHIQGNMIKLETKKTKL
Assay: Whole-cell AK-AMCA uptake competition assay in HsPepT2-transfected HEK293F cells
Assay type: cell-based
Details: for IC50: HsPepT2-transfected HEK293F cells, 50 μM β-Ala-Lys-AMCA, pH 6.0, 10 min at 37°C, read-out: IC50, concentration-dependent competition of β-Ala-Lys-AMCA uptake
Protocol: The wild-type […]2 gene was cloned into a pXLG vector ([61]) containing an expression cassette composed of an N-terminal hexa-histidine tag followed by enhanced green fluorescent protein and a tobacco etch virus protease cleavage site. […] The reaction was stopped by adding 200 μl of ice-cold buffer, and the cells were then washed three times with the same buffer. Last, the cells were resuspended in 200 μl of buffer, and the fluorescence was measured in an M1000 microplate reader (TECAN) with excitation at 350 nm and emission at 450 nm. All experiments were performed in triplicates. […] For concentration-dependent uptake experiments, IC50 values were processed in GraphPad Prism 9.0 (GraphPad Software) using sigmoidal four-parameter curve fitting.

| IC50 [µM] | Uptake of the fluorescent reporter after HsPepT2 overexpression (HEK293 cells overexpressing HsPepT2) | Molecule |
| --- | --- | --- |
| 373.5 ± 1.6 | – | NCC(=O)CCC(=O)O [5-aminolevulinic acid] |
| 368.9 ± 1.5 | – | CC(C)[C@H](N)C(=O)OCC(CO)OCn1cnc2c(=O)nc(N)[nH]c21 (stereo partly drawn) [valganciclovir] |
| – | specific uptake | ß-Ala-Lys-AMCA |
